How the values were obtained:
[1] = target: Serine/threonine-protein kinase Nek9 (Homo sapiens) (UniProt Q8TD19); conditions: Compound concentration 1000.0 nM
[2] = target: Cytoplasmic tyrosine-protein kinase BMX (Homo sapiens) (UniProt P51813); conditions: Compound concentration 1000.0 nM
[3] = target: Kappa-type opioid receptor (Homo sapiens) (UniProt P41145); assay: kappa (h) (KOP) Eurofins-Cerep binding assay; parameters: ligand concentration 0.5 nM; conditions: filed as agonist, Compound concentration 10.0 uM
[4] = target: Glutamate NMDA receptor (Rattus norvegicus) (UniProt P35439+Q00959+Q00960+Q00961+Q62645+Q8VHN2+Q9R1M7); assay: PCP Eurofins-Cerep binding assay; format: protein-complex assay; parameters: ligand concentration 10 nM; conditions: filed as antagonist, Compound concentration 10.0 uM
[5] = target: Calcium/calmodulin-dependent protein kinase type II subunit alpha (Homo sapiens) (UniProt Q9UQM7); conditions: Compound concentration 1000.0 nM
Sequence of Calcium/calmodulin-dependent protein kinase type II subunit alpha (Homo sapiens) (Q9UQM7 whole entry): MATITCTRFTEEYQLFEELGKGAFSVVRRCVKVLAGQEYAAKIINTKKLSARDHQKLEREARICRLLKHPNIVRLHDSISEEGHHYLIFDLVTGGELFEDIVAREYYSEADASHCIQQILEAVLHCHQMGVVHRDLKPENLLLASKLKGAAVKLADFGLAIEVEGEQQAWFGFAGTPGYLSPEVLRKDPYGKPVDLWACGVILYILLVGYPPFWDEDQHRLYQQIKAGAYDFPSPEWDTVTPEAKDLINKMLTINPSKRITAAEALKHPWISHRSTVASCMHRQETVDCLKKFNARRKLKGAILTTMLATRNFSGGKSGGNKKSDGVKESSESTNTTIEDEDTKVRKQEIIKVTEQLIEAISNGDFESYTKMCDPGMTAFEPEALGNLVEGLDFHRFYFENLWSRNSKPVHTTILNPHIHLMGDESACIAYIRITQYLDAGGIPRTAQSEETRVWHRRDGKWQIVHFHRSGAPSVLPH

[6] = target: Cyclin-dependent kinase 8 (Homo sapiens) (UniProt P49336); conditions: Compound concentration 1000.0 nM
[7] = target: Phosphatidylinositol 5-phosphate 4-kinase type-2 gamma (Homo sapiens) (UniProt Q8TBX8); conditions: Compound concentration 1000.0 nM
Sequence of Phosphatidylinositol 5-phosphate 4-kinase type-2 gamma (Homo sapiens) (Q8TBX8 whole entry): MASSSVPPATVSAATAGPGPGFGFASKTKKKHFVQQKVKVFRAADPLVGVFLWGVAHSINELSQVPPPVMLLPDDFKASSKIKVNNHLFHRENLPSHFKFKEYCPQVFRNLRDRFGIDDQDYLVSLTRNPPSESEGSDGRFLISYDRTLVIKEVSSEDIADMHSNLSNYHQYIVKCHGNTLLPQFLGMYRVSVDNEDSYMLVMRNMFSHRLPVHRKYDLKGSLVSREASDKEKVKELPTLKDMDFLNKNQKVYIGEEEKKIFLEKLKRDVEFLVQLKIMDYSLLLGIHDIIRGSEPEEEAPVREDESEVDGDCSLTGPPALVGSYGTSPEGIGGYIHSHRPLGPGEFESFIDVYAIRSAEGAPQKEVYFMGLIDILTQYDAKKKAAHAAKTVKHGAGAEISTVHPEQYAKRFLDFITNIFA

[8] = target: T1, Muscarinic acetylcholine receptor M1 (Homo sapiens) (UniProt P11229); conditions: Compound concentration 10.0 uM
T1 sequence (whole entry): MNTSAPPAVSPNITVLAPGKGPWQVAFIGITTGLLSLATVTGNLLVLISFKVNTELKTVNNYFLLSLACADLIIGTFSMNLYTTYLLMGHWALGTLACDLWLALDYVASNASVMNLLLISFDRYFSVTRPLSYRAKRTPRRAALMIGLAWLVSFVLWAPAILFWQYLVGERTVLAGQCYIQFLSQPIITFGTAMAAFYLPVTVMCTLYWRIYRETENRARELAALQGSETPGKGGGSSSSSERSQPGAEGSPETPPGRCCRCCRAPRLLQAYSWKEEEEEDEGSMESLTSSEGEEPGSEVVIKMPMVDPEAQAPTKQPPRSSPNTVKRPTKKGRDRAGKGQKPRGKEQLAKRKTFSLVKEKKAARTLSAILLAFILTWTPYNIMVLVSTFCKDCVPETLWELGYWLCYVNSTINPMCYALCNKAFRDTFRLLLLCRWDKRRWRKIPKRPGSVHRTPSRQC

[9] = target: RAC-beta serine/threonine-protein kinase (Homo sapiens) (UniProt P31751); conditions: Compound concentration 1000.0 nM
[10] = tested on: Tyrosine-protein kinase ABL1 (Homo sapiens), P00519 [Q252H]; conditions: Compound concentration 1000.0 nM
[11] = tested on: Receptor-type tyrosine-protein kinase FLT3 (Homo sapiens), P36888 [D835Y]; conditions: Compound concentration 1000.0 nM
[12] = tested on: Fibroblast growth factor receptor 3 (Homo sapiens), P22607 [G697C]; conditions: Compound concentration 1000.0 nM
[13] = target: Dual specificity tyrosine-phosphorylation-regulated kinase 1A (Homo sapiens) (UniProt Q13627); conditions: Compound concentration 1000.0 nM
[14] = target: Tyrosine-protein kinase FRK (Homo sapiens) (UniProt P42685); conditions: Compound concentration 1000.0 nM
[15] = target: Serine/threonine-protein kinase NIM1 (Homo sapiens) (UniProt Q8IY84); conditions: Compound concentration 1000.0 nM
[16] = target: Bcl-2-like protein 1 (Homo sapiens, UniProt Q07817); assay: Time-resolved fluorescence energy transfer (TR-FRET) with BCL2L1
Sequence of Bcl-2-like protein 1 (Q07817 whole entry): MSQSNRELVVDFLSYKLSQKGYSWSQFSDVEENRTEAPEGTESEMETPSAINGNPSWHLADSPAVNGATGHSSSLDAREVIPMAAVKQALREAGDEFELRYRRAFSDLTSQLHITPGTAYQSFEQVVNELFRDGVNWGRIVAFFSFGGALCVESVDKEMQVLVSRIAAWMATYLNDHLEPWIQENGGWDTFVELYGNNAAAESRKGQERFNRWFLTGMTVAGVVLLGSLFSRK

[17] = target: Bone morphogenetic protein receptor type-1A (Homo sapiens) (UniProt P36894); conditions: Compound concentration 1000.0 nM
[18] = target: Myosin light chain kinase (Homo sapiens) (UniProt Q32MK0); conditions: Compound concentration 1000.0 nM
[19] = target: Serine/threonine-protein kinase STK11 (Homo sapiens) (UniProt Q15831); conditions: Compound concentration 1000.0 nM
Sequence of Serine/threonine-protein kinase STK11 (Homo sapiens) (Q15831 whole entry, the tested form may be a part): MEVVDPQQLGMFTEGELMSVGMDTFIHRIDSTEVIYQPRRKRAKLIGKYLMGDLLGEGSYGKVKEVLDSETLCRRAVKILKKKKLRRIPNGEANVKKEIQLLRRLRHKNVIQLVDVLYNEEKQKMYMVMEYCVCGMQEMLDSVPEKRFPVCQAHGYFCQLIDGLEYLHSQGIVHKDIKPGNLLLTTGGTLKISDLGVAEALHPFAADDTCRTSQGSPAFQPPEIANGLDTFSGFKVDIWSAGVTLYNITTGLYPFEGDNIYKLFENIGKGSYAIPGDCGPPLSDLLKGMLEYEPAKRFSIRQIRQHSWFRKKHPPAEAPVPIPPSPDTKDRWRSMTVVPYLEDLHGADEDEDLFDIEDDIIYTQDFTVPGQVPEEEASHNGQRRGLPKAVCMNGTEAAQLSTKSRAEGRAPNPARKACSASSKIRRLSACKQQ

[20] = target: LIM domain kinase 2 (Homo sapiens) (UniProt P53671); conditions: Compound concentration 1000.0 nM
[21] = target: Histamine H1 receptor (Homo sapiens) (UniProt P35367); conditions: Compound concentration 10.0 uM
[22] = target: Histamine H2 receptor (Homo sapiens) (UniProt P25021); assay: H2 (h) Eurofins-Cerep binding assay; parameters: ligand concentration 0.075 nM; conditions: filed as antagonist, Compound concentration 10.0 uM
[23] = target: Tyrosine-protein kinase JAK1 (Homo sapiens) (UniProt P23458); conditions: Compound concentration 1000.0 nM
[24] = target: Dual specificity mitogen-activated protein kinase kinase 7 (Homo sapiens) (UniProt O14733); conditions: Compound concentration 1000.0 nM
[25] = tested on: Mast/stem cell growth factor receptor Kit (Homo sapiens), P10721 [D816V]; conditions: Compound concentration 1000.0 nM
Sequence of Mast/stem cell growth factor receptor Kit (Homo sapiens), P10721 [D816V] (P10721 whole entry D816V): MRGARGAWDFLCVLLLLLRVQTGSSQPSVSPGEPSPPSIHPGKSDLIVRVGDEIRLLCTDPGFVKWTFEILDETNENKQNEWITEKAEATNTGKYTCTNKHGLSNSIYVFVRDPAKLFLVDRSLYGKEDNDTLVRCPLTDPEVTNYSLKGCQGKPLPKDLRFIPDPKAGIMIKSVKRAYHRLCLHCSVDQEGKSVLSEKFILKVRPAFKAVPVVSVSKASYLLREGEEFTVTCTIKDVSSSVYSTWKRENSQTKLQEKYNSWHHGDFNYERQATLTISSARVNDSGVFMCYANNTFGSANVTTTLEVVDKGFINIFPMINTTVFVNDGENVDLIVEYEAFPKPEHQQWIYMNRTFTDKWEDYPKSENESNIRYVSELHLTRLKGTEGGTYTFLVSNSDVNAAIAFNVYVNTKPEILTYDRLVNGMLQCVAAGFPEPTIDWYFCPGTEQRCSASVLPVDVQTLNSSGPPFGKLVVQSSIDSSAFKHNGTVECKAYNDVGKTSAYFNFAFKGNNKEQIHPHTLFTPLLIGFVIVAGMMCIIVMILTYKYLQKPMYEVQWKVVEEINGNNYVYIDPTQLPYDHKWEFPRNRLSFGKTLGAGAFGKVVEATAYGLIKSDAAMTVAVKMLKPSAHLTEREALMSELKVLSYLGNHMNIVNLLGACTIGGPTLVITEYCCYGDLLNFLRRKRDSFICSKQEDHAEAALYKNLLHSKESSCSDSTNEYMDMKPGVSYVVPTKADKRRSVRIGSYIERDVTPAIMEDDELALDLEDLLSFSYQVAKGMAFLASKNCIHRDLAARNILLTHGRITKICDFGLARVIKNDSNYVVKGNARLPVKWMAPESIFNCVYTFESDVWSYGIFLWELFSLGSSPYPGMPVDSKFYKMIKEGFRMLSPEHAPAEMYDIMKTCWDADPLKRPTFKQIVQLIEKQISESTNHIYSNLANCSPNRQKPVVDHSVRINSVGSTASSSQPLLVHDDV

[26] = target: Mitogen-activated protein kinase 15 (Homo sapiens) (UniProt Q8TD08); conditions: Compound concentration 1000.0 nM
Sequence of Mitogen-activated protein kinase 15 (Homo sapiens) (Q8TD08 whole entry): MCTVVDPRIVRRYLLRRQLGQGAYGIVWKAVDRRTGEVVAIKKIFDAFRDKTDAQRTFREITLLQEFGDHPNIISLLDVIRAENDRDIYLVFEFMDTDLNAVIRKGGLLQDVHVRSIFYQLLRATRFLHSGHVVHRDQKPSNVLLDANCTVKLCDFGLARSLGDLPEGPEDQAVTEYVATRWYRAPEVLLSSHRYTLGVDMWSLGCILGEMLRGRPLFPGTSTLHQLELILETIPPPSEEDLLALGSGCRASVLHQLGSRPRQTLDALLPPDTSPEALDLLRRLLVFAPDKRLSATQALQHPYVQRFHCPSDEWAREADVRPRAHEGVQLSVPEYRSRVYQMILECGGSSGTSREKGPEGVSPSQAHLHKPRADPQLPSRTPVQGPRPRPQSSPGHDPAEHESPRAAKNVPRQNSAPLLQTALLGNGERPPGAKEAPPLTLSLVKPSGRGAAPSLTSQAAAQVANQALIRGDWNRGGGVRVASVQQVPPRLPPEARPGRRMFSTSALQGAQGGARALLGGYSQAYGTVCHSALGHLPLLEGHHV

[27] = target: Ribosomal protein S6 kinase alpha-5 (Homo sapiens) (UniProt O75582); conditions: Compound concentration 1000.0 nM
Sequence of Ribosomal protein S6 kinase alpha-5 (Homo sapiens) (O75582 whole entry, looked up, canonical isoform): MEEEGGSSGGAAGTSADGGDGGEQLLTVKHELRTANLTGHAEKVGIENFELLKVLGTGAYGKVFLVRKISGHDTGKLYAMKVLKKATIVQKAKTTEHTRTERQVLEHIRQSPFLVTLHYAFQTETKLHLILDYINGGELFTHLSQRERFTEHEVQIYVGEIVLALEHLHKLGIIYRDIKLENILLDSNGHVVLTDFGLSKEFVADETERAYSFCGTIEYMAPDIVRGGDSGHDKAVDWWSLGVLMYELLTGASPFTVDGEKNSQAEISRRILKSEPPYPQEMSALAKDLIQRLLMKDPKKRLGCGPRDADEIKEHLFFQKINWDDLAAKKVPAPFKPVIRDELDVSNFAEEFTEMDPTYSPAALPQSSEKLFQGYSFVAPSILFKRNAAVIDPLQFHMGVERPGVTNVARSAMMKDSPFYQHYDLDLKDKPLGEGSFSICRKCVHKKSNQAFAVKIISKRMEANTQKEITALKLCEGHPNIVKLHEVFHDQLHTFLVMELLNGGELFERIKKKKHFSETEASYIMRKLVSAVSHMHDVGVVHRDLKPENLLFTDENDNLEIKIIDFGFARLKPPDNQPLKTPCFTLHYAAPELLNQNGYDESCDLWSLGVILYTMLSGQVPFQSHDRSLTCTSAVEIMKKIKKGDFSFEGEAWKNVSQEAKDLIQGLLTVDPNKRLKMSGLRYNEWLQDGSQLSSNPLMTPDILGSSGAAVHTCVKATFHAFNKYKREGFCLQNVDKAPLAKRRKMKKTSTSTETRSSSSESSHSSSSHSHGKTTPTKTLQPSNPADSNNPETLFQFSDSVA

[28] = tested on: Phosphatidylinositol 4,5-bisphosphate 3-kinase catalytic subunit alpha isoform (Homo sapiens), P42336 [H1047Y]; conditions: Compound concentration 1000.0 nM
Sequence of Phosphatidylinositol 4,5-bisphosphate 3-kinase catalytic subunit alpha isoform (Homo sapiens), P42336 [H1047Y] (P42336 whole entry H1047Y, canonical isoform): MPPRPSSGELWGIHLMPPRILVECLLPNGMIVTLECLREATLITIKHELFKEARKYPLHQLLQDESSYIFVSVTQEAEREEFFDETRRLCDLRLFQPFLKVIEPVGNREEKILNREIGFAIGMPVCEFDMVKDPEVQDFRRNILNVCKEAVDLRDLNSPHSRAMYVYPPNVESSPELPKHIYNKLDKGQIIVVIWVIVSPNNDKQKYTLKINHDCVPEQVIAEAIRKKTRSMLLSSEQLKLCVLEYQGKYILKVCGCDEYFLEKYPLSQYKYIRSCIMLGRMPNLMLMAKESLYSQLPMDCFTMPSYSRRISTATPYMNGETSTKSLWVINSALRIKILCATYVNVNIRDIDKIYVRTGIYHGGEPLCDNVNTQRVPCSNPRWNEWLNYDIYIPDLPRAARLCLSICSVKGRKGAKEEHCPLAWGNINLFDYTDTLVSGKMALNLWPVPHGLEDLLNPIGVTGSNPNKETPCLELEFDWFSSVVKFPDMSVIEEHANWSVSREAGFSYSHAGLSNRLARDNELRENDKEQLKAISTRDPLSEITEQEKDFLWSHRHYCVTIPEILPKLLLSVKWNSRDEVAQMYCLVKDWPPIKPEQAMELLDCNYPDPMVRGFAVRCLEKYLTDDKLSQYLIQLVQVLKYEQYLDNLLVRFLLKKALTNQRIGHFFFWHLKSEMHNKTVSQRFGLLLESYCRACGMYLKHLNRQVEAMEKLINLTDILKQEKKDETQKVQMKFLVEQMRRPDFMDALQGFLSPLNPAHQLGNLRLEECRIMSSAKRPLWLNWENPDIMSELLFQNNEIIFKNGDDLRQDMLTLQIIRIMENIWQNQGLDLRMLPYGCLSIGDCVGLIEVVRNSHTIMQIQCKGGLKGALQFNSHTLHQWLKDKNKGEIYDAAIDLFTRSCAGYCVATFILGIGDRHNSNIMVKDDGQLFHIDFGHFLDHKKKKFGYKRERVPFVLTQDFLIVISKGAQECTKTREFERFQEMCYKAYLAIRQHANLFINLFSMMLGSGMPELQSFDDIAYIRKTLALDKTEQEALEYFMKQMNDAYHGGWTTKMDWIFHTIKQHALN

[29] = target: Insulin receptor-related protein (Homo sapiens) (UniProt P14616); conditions: Compound concentration 1000.0 nM
[30] = target: Mitogen-activated protein kinase kinase kinase 15 (Homo sapiens) (UniProt Q6ZN16); conditions: Compound concentration 1000.0 nM
[31] = target: Inhibitor of nuclear factor kappa-B kinase subunit beta (Homo sapiens) (UniProt O14920); conditions: Compound concentration 1000.0 nM
[32] = target: Serine/threonine-protein kinase SIK2 (Homo sapiens) (UniProt Q9H0K1); conditions: Compound concentration 1000.0 nM

`O=C(NS(=O)(=O)c1ccc(NCC2CCOCC2)c([N+](=O)[O-])c1)c1ccc(N2CCN(Cc3ccc(C(F)(F)F)cc3-c3ccc(Cl)cc3)CC2)cc1Oc1cnc2[nH]ccc2c1` [A-1210227] showed a residual activity [1] of 100%, a residual activity [2] of 100% and a % Inhibition of Control Specific Binding (Mean n=2) [3] of 23.2%. It also gave a % Inhibition of Control Specific Binding (Mean n=2) [4] of 19.2%, a residual activity [5] of 87% and a residual activity [6] of 100%. The residual activity [7] was 100%, the inhibition [8] was -6.07% and the residual activity [9] was 100%. For the same compound, the residual activity [10] was 100%, the residual activity [11] was 99% and the residual activity [12] was 100%. The residual activity [13] was 63%, the residual activity [14] was 100% and the residual activity [15] was 94%. The IC50 [16] was > 25 µM (not active), the residual activity [17] was 81% and the residual activity [18] was 100%. For the same compound, the residual activity [19] was 100%, the residual activity [20] was 97% and the inhibition [21] was -9.16%. The % Inhibition of Control Specific Binding (Mean n=2) [22] was -948%, the residual activity [23] was 100% and the residual activity [24] was 100%. For the same compound, the residual activity [25] was 100%, the residual activity [26] was 94% and the residual activity [27] was 95%. It also gave a residual activity [28] of 67%, a residual activity [29] of 98% and a residual activity [30] of 84%. It also gave a residual activity [31] of 74% and a residual activity [32] of 100%.
In the case of `CO[C@H]1CC[C@H](CNc2ccc(S(=O)(=O)NC(=O)c3ccc(N4CCN(CC5=C(c6ccc(Cl)cc6)CC(C)(C)CC5)CC4)cc3Oc3cnc4[nH]ccc4c3)cc2[N+](=O)[O-])CC1` [A-1211212], the residual activity [1] is reported as 95%, the residual activity [2] is reported as 95% and the % Inhibition of Control Specific Binding (Mean n=2) [3] is reported as 1.1%. It also gave a % Inhibition of Control Specific Binding (Mean n=2) [4] of 1.9%, a residual activity [5] of 68% and a residual activity [6] of 91%. For the same compound, the residual activity [7] was 85%, the inhibition [8] was 4.59% and the residual activity [9] was 80%. It also gave a residual activity [10] of 81%, a residual activity [11] of 100% and a residual activity [12] of 100%. It also gave a residual activity [13] of 65%, a residual activity [14] of 100% and a residual activity [15] of 90%. For the same compound, the IC50 [16] was 0.753 µM (not active), the residual activity [17] was 57% and the residual activity [18] was 100%. It also gave a residual activity [19] of 59%, a residual activity [20] of 80% and an inhibition [21] of 34.2%. It also gave a % Inhibition of Control Specific Binding (Mean n=2) [22] of -22%, a residual activity [23] of 96% and a residual activity [24] of 100%. For the same compound, the residual activity [25] was 100%, the residual activity [26] was 85% and the residual activity [27] was 90%. For the same compound, the residual activity [28] was 70%, the residual activity [29] was 100% and the residual activity [30] was 100%. The residual activity [31] was 100% and the residual activity [32] was 100%.
